Reference: patent US20130023485A1, “PARENTERAL FORMULATIONS OF PEPTIDES FOR THE TREATMENT OF SYSTEMATIC LUPUS ERYTHEMATOSUS” (Teva Pharmaceutical Industries, Ltd., priority 2003, published 2013)
Where two headings read alike, the source gives them in different places.

What was measured:
[1] = tested on: PBL from SLE patients; experiment: Proliferation of PBL in presence of mAb or peptides (3H-thymidine); type: cell-based, human
Description: (§1) Peripheral blood lymphocytes (PBL) were isolated from the blood of SLE patients or healthy controls using ficol gradient. Thereafter, the PBL were incubated in the presence of different concentrations of the peptides Ia, IIa or IIIa, or the human 16/6 Id mAb for 24 hr, when a sample was taken for IL-2 measurement. The assay was continued for a total of 7 days, and ^3H-thymidine was added for the last 16 hr. Proliferation was detected by reading the amount of radioactivity incorporated into the DNA of the cells.
(§2) As is seen in Table 14, a lower proportion of the PBL taken from SLE patients reacted to the peptides or to the 16/6 Id mAb, when compared to the healthy controls. The results are expressed in percentage of responder (34% in the first line) and the actual number of patients (11 out of 32: 11/32).

[2] = tested on: PBL from healthy controls; experiment: as above; type: cell-based, human
Description: as §1, §2

[3] = tested on: PBL of healthy controls; experiment: Production of IL-2 by PBL in presence of mAb or peptides (CTLD cells); type: cell-based, human
Description: (§3) PBL were isolated from blood of SLE patients or healthy controls using ficol gradient, and were incubated as in Example 11. A sample of 50 μl was removed 24 hr after the assay was started, and incubated in the presence of IL-2 sensitive cells (CTLD) for 24 hr, after which ^3H-thymidine was added for 16 hr, and the plates were harvested and counted on a beta counter.

[4] = tested on: PBL of SLE patients; experiment: as above; type: cell-based, human
Description: as §3

[5] = tested on: PBL of SLE patients stimulated with human 16/6Id mAb; type: cell-based; details: for inhibition of proliferative responses to human 16/6Id mAb: PBL of one SLE patient; for Percent Inhibition of proliferation: highest positive inhibition, peptide 50 or 100 μg/well
Description: Cells were then harvested and radioactivity was counted using a β-counter. Results were expressed as mean counts per minute (cpm) of triplicate cultures. Stimulation indices (the ratio of mean cpm at the optimal concentration of 16/6Id to mean cpm without 16/6Id) were then calculated. A stimulation index (SI)≧2 was considered positive. […] Inhibition of above 50% of the proliferative capacity was considered positive. The Table represents the highest positive inhibition capacity for each peptide. […] Both peptides inhibited the proliferation of PBL of 18/19(95%) of responders tested. It can also be seen in the Table that the magnitudes of inhibitions were similar for both peptides. Thus, it can be concluded that peptides based on CDR1 and CDR3 of the human 16/6Id mAb are efficient inhibitors of the proliferation of PBL of SLE patients to the human 16/6Id mAb.

[6] = tested on: antibodies in sera of SLE patients and healthy controls; experiment: ELISA of sera for antibodies binding plate-coated peptides or mAb; design: species or system human; details: plates coated with 10 μg/ml; FIG. 7
Description: Human SLE patients (32 patients) were bled and their sera were tested by ELISA for their ability to bind the peptides Ia, IIa and 111a, a control peptide p195-212 (a myasthogenic peptide described in PCT publication No. WO 94/00148) or mAb 5G12.
Detection of the antibodies was conducted on plates that were coated with 10 μg/ml of peptides Ia, IIa, IIIa, p195-212 or mAb 5G12, in PBS for 2 hr, washed and blocked with 1% ovalbumin in PBS for an additional 2 hr. ELISA was continued as described after blockage in Example 2 of PCT International Publication No. 96/30057, using goat anti-human IgG polyclonal antibody conjugated to peroxidase.

[7] = tested on: IL-2 secretion by PBL of SLE patients; experiment: Inhibition of IL-2 secretion by PBL stimulated with human 16/6Id mAb (CTLL line); type: cell-based
Description: It was of interest to find out whether the hCDR peptides are capable of inhibiting IL-2 secretion by PBL of SLE patients following stimulation with the human 16/6Id mAb. […] To this end, PBL of SLE patients were incubated with the human 16/6Id mAb in the absence or presence of the peptides hCDR1 or hCDR3. Supernatants of the cultures were collected following 48 hours of incubation. Assays to determine levels of IL-2 in the supernatants were performed using the CTLL IL-2 dependent line. Briefly, cells of the CTLL line (2×10^4/well) were incubated in the presence of the different supernatants for 24 hours, followed by the addition of ^3H-thymidine for an additional 18-hour incubation period. Cells were then harvested and radioactivity counted using a β-counter. Results were calculated based on recombinant human IL-2 used as a standard. The ability of the peptides to inhibit the IL-2 secretion of PBL of 23 responders stimulated by the human 16/6 Id was tested. […] Inhibition of proliferative responses of PBL directly correlated with IL-2 inhibition by the CDR-based peptides.

[8] = tested on: TGF-β secretion by PBL of SLE patients; experiment: Up-regulation of TGF-β secretion by PBL stimulated with human 16/6Id mAb (ELISA); type: cell-based
Description: For this purpose, supernatants were removed from cultures of PBL of various SLE patients following 48 hours incubation with the human 16/6Id mAb in the absence or presence of the peptides hCDR1 or hCDR3. TGF-β was determined by ELISA according to the manufacturer's instructions. Briefly, Maxisorb plates (Nunc) were coated with recombinant human TGFβsRII/Fc chimera (R & D Systems) diluted in PBS (100 ng/ml). After blocking, cell supernatants were added. After 18 hours incubation the detecting biotinylated anti-human TGF-β antibody (R & D Systems) was added. The substrate solution used was the TMB Colour Reagent (Helix Diagnostics) and enzyme activity was evaluated by the MRX ELISA reader using the 570 nm and 630 nm filters.

[9] = tested on: PBL of SLE patients stimulated with phytohemagglutinin (PHA); experiment: Proliferation of PBL stimulated with mitogen PHA; type: cell-based, human; details: PHA 2 μg/ml; PBL of one SLE patient, FIG. 9
Description: To this end the peptides hCDR1 or hCDR3 were added to cultures of PBL of SLE patients that were stimulated with the mitogen phytohemagglutinin (PHA, 2 μg/ml).

YYCARFLWEPYAMDYWGQGS (YYCARFLWEPYAMDYWGQGS) [pep IIIa, based on CDR3 of the VH chain of mAb 5G12]
number of responders / tested (proliferation) [1]: 10/32 | percentage of responders (proliferation) [1]: 31% | number of responders / tested (proliferation) [2]: 15/25 | percentage of responders (proliferation) [2]: 60% | number of responders / tested (IL-2 production) [3]: 16/25 | percentage of responders (IL-2 production) [3]: 64% | number of responders / tested (IL-2 production) [4]: 5/32 | percentage of responders (IL-2 production) [4]: 16% | inhibition of proliferative responses to human 16/6Id mAb ([5]; FIG. 10): did not inhibit | levels of serum antibodies binding the coated antigen, SLE patients versus healthy controls [6]: significantly higher levels

TGYYMQWVKQSPEKSLEWIG [pep Ia]
number of responders / tested (proliferation) [1]: 7/32 | percentage of responders (proliferation) [1]: 21% | number of responders / tested (proliferation) [2]: 11/25 | percentage of responders (proliferation) [2]: 44% | number of responders / tested (IL-2 production) [3]: 14/25 | percentage of responders (IL-2 production) [3]: 56% | number of responders / tested (IL-2 production) [4]: 5/32 | percentage of responders (IL-2 production) [4]: 16% | levels of serum antibodies binding the coated antigen, SLE patients versus healthy controls [6]: significantly higher levels

YYCARGLLRGGWNDVDYYGMDV [hCDR3, peptide based on CDR3 of the human 16/6Id mAb]
patients whose PBL IL-2 secretion was inhibited / tested ([7]; 23 responders): 19/23 | Maximum inhibition % ([7]; IL-2 secretion with 16/6 Id alone = 100%): 78 ± 34% | Inhibitory Activity* % (patients with inhibition of 50% or more) ([7]; PBL of 23 responders): 83 (19/23) % | inhibition of IL-2 secretion ([7]; PBL of one SLE patient, FIG. 12): 100% | inhibition of proliferative responses to human 16/6Id mAb ([5]; FIG. 10): inhibited efficiently | inhibition of proliferative responses to human 16/6Id mAb ([5]; FIG. 11): did inhibit efficiently | Percent Inhibition of proliferation ([5]; SLE patient Number 1): <50% | Percent Inhibition of proliferation ([5]; SLE patient Number 2): 75% | Percent Inhibition of proliferation ([5]; SLE patient Number 3): <50% | Percent Inhibition of proliferation ([5]; SLE patient Number 4): <50% | Percent Inhibition of proliferation ([5]; SLE patient Number 5): 87.5% | Percent Inhibition of proliferation ([5]; SLE patient Number 6): 80% | Percent Inhibition of proliferation ([5]; SLE patient Number 7): 70.4% | Percent Inhibition of proliferation ([5]; SLE patient Number 8): 56% | Percent Inhibition of proliferation ([5]; SLE patient Number 9): 65% | Percent Inhibition of proliferation ([5]; SLE patient Number 10): 71.8% | Percent Inhibition of proliferation ([5]; SLE patient Number 11): 72% | Percent Inhibition of proliferation ([5]; SLE patient Number 12): 86% | Percent Inhibition of proliferation ([5]; SLE patient Number 13): 64% | Percent Inhibition of proliferation ([5]; SLE patient Number 14): 74% | Percent Inhibition of proliferation ([5]; SLE patient Number 15): 69% | Percent Inhibition of proliferation ([5]; SLE patient Number 16): 68% | Percent Inhibition of proliferation ([5]; SLE patient Number 17): 77.8% | Percent Inhibition of proliferation ([5]; SLE patient Number 18): <50% | Percent Inhibition of proliferation ([5]; SLE patient Number 19): 60.8% | responders whose PBL proliferation was inhibited (above 50%) ([5]; of the 19 responders tested): 78.9% | Percent Inhibition of proliferation, Mean ± SD ([5]; over patients with positive inhibition (above 50%)): 71.82 ± 8.44% | Up-Regulation of TGF-β % (patients) ([8]; PBL of SLE patients, 48 hours): 100 (19/19) % | secretion of TGF-β ([8]; PBL of one representative SLE patient, FIG. 13): significant up-regulation | Maximum Up-regulation % ([8]; percent secretion above that in the presence of 16/6 Id alone (= 100%)): 338 ± 242% | inhibition of proliferative responses to mitogen PHA [9]: could not inhibit

EINPSTGGTTYNQKFKAKAT (EINPSTGGTTYNQKFKAKAT) [pep IIa, based on CDR2 of the VH chain of mAb 5G12]
number of responders / tested (proliferation) [1]: 3/32 | percentage of responders (proliferation) [1]: 9% | number of responders / tested (proliferation) [2]: 7/25 | percentage of responders (proliferation) [2]: 28% | number of responders / tested (IL-2 production) [3]: 8/25 | percentage of responders (IL-2 production) [3]: 32% | number of responders / tested (IL-2 production) [4]: 3/32 | levels of serum antibodies binding the coated antigen, SLE patients versus healthy controls [6]: significantly higher levels
